The series can be described thus: Potentiometric. It counts as physicochemical. Conditions: 1-octanol/water biphasic system, log P (mean ± SEM), octanol / ISA water, neutral species, 25.0 ± 0.5 °C, 150 mM KCl, mean ± SEM of at least three independent replicates.

On to `FC(F)(F)c1cccc(Nc2ncnc3ccccc23)c1` [SM02, c1ccc2c(c1)c(ncn2)Nc3cccc(c3)C(F)(F)F], for which the logP is 4.09 ± 0.03.
Then `Clc1ccc(CNc2ncnc3ccccc23)cc1` [SM04, c1ccc2c(c1)c(ncn2)NCc3ccc(cc3)Cl], with 3.98 ± 0.03.
`Cc1ccc2[nH]c(=O)c(CC(=O)O)c(-c3ccccc3)c2c1` [SM08, Cc1ccc2c(c1)c(c(c(=O)[nH]2)CC(=O)O)c3ccccc3] yielded a logP of 3.1 ± 0.03.
As to `COc1cccc(Nc2ncnc3ccccc23)c1` [SM09, COc1cccc(c1)Nc2c3ccccc3ncn2.Cl], the lipophilicity (logP) was 3.03 ± 0.07.
Then `Nc1ncnc2c1cnn2-c1ccccc1` [SM11, c1ccc(cc1)n2c3c(cn2)c(ncn3)N], with 2.1 ± 0.04.
Then `Clc1cccc(Nc2ncnc3ccccc23)c1` [SM12, c1ccc2c(c1)c(ncn2)Nc3cccc(c3)Cl.Cl], with 3.83 ± 0.03.
As to `COc1cc2ncnc(Nc3cccc(C)c3)c2cc1OC` [SM13, Cc1cccc(c1)Nc2c3cc(c(cc3ncn2)OC)OC], the logP turned out to be 2.92 ± 0.04.
In the case of `Nc1ccc2c(c1)ncn2-c1ccccc1` [SM14, c1ccc(cc1)n2cnc3c2ccc(c3)N], the lipophilicity (logP) was determined as 1.95 ± 0.03.
Then `Oc1ccc(-n2cnc3ccccc32)cc1` [SM15, c1ccc2c(c1)ncn2c3ccc(cc3)O], with 3.07 ± 0.03; and `O=C(Nc1ccncc1)c1c(Cl)cccc1Cl` [SM16, c1cc(c(c(c1)Cl)C(=O)Nc2ccncc2)Cl], with 2.62 ± 0.01.

The record behind these values is article PMC7301889 (Journal of computer-aided molecular design, 2019).
